The subject of data set [1] is 78 recombinant human targets. In words: SAFETYscan E/IC50 ELECT panel of 78 assays. The note with it: 10 concentrations, 0.005 to 100 μM; single experiment. Here is the method:
(§1) Assessment of the safety profile of VBJ103 across 78 assays using recombinant human targets was performed with the SAFETYscan E/IC50 ELECT service by Eurofins DiscoverX (San Diego, CA, USA). Data represent a single experiment and therefore should be considered preliminary. The assays were performed utilizing PathHunter enzyme fragment complementation (EFC) technology, FLIPR®-based cellular screening assays, KINOMEscan kinase binding assays and a variety of enzymatic assays. Further potential functional activity at opioid receptors was performed in the gpcrSCAN service by Eurofins DiscoverX. Hit Hunter® cAMP assays were carried out using Enzyme Fragment Complementation (EFC) with β-galactosidase (β-Gal) as the functional reporter.

Data set [2] addresses T1, μ opioid receptor (OPRM1) (Homo sapiens, UniProt P35372).
T1 construct: purchased Eurofins DiscoverX (SAFETYscan; gpcrSCAN; HitHunter cAMP XS+)
As to the kind of experiment: Eurofins DiscoverX opioid receptor assays (SAFETYscan; HitHunter cAMP), OPRM1. The class given is cell-based. How it is done:
as §1, with “Data represent a single experiment and therefore should be considered preliminary.” left out
(§2) Assessment of potential positive allosteric modulator (PAM) activity at μ, δ and κ opioid receptors was performed with the DiscoverX HitHunter cAMP XS+ assay by Eurofins DiscoverX (San Diego, CA, USA).

Data set [3] in a line: Brain levels in vivo by UPLC-MS/MS. Details: species or system rat. Here is the method: VBJ103 levels in the brain were determined by PsychoGenics Inc (Paramus, USA). VBJ103 and vehicle solutions were administered subcutaneously at a dose of 100 mg·kg^−1. Male and female Sprague–Dawley rats (200–250 g) supplied by Envigo were used in this study and housed three per cage (26 cm × 47.6 cm × 20.3 cm) upon arrival. Rats with jugular vein catheters (JVC) were housed two per cage with a divider to prevent damage to catheters. Cages contained BedO’-Cob® bedding with Nylabones® for enrichment. Rats were acclimatised for 2 to 7 days prior to commencing studies. All rats were examined, handled and weighed prior to initiation of the study to assure adequate health and suitability. During the course of the study, 12/12 light/dark cycles were maintained with lights on at 6 AM. The room temperature was maintained between 20°C and 23°C with a relative humidity maintained around 50%. Chow (Lab diet 5001, LabDiet, St. Louis, MO, USA) and water were provided ad libitum throughout the acclimatisation period and during the treatment and collection period. Rats were randomly assigned to the experimental groups.
UPLC-MS/MS analysis was performed on a ODS 3 Inertsil C18 column 2.1 × 50 mm, 2 μm (GL Sciences 5020–84652), using a gradient of 40:60 solvent A (H2O + 0.5% formic acid):solvent B (ACN + 1.0% formic acid) → 0:100 for 2 min at a flow rate of 0.5 ml·min^−1. The following parameters were used: injection volume 5 μl, column temperature 40°C, pre-column temperature 40°C and sample temperature 4°C. Eluted peaks were monitored with a Waters Xevo TQ-XS coupled to an Acquity i-Class Plus UPLC setup (range: 334.19 Da to 155.04 and 198.08 Da). RT = 1.15 min. The range of quantitation was 0.25 to 10,000 ng·ml^−1 for brain. The software Masslynx V4.2 SCN1012 was used for instrument control and data acquisition.
Brain collection was performed via live decapitation. Whole brains were collected at 1 h following administration and upon completion of serial collections (24 h). Resultant brains were rinsed in saline and frozen immediately on a cold plate (−77°C) before placement into a pre-weighed specimen container. Brain weights were then determined prior to placement of the samples on dry ice followed by relocation to a −80°C freezer pending bioanalysis.
Pre-weighed whole brain tissue was homogenized (Omni Prep multichannel tissue homogenizer) using a 1:1 MilliQ water (containing 0.2% acetic acid)/acetonitrile mixture which was added to the brain using a 4:1 solution to brain ratio. Subsequently, the homogenate was centrifuged for 10 min at 4°C at a speed of 2688 g. Three 25-μl aliquots out of the top layer of the centrifuged homogenate were crashed into three QuanRecovery wells, each containing 150 μl of acetonitrile/internal standard. The crash was then centrifuged for 20 min at 2688 g while maintaining a temperature of 4°C. Mixing of the resultant supernatant with water (3:2) provided samples for triplicate analysis. Brain standards, quality controls (QCs) and blanks were prepared using a male Sprague–Dawley brain acquired from BioIVT using the same protocol outlined above. All standards, QCs, samples and blanks were then loaded onto the UPLC-MS/MS for analysis.
The concentration of VBJ103/mass was based on brain weights. The volume of the homogenate was based on a 4:1 dilution of the brains. The volumes of homogenate was calculated based on brain weights in Table S13.

Data set [4] addresses T2, δ opioid receptor (OPRD1) (Homo sapiens, UniProt P41143).
T2 construct: purchased Eurofins DiscoverX (SAFETYscan; gpcrSCAN; HitHunter cAMP XS+)
In words: Eurofins DiscoverX opioid receptor assays (SAFETYscan; HitHunter cAMP), OPRD1. The class given is cell-based. How it is done:
as §1, with “Data represent a single experiment and therefore should be considered preliminary.” left out
as §2

In data set [5] the target is T3, dopamine transporter (DAT) (Homo sapiens, UniProt Q01959).
T3 construct: purchased Eurofins DiscoverX (SAFETYscan E/IC50 ELECT service)
In words: SAFETYscan E/IC50 ELECT, dopamine transporter antagonist assay. Type of data set: cell-based. Conditions: single experiment. Here is the method:
as §1, with “Data represent a single experiment and therefore should be considered preliminary.” left out

Data set [6] has as its target T4, κ opioid receptor (OPRK1) (Homo sapiens, UniProt P41145).
T4 construct: purchased Eurofins DiscoverX (SAFETYscan; gpcrSCAN; HitHunter cAMP XS+)
As to the kind of experiment: Eurofins DiscoverX opioid receptor assays (SAFETYscan; HitHunter cAMP), OPRK1. Type of data set: cell-based. How it is done:
as §1, with “Data represent a single experiment and therefore should be considered preliminary.” left out
as §2

Setting [7] is: Positive Allosteric Modulator format, read-out: Max Response, cAMP.

Where “and” joins values, the source holds several entries; their conditions need not be identical. Identical values can stand only once. Like-named read-outs stand apart in the source and are kept apart here.

T4 sequence (P41145 whole entry): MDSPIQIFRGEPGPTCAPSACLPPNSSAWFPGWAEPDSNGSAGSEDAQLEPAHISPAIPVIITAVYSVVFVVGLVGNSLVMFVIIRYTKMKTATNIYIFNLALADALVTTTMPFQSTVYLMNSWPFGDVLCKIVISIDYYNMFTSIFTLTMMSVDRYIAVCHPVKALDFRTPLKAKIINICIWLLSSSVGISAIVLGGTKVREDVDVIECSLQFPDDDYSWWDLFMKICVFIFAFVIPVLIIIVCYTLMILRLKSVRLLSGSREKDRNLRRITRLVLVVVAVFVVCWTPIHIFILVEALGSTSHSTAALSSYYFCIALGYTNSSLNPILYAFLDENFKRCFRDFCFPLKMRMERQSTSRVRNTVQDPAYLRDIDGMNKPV
T1 sequence (P35372 whole entry): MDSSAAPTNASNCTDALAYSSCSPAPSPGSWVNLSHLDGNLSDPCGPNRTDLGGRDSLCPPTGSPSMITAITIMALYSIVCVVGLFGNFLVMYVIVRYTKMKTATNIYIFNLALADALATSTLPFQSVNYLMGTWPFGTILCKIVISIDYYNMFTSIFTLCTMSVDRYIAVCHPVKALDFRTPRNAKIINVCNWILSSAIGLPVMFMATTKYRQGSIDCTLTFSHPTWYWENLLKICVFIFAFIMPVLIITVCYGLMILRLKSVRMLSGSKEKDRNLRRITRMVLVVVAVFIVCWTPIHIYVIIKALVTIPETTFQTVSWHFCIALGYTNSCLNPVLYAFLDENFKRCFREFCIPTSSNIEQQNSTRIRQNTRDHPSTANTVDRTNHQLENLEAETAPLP
T3 sequence (Q01959 whole entry): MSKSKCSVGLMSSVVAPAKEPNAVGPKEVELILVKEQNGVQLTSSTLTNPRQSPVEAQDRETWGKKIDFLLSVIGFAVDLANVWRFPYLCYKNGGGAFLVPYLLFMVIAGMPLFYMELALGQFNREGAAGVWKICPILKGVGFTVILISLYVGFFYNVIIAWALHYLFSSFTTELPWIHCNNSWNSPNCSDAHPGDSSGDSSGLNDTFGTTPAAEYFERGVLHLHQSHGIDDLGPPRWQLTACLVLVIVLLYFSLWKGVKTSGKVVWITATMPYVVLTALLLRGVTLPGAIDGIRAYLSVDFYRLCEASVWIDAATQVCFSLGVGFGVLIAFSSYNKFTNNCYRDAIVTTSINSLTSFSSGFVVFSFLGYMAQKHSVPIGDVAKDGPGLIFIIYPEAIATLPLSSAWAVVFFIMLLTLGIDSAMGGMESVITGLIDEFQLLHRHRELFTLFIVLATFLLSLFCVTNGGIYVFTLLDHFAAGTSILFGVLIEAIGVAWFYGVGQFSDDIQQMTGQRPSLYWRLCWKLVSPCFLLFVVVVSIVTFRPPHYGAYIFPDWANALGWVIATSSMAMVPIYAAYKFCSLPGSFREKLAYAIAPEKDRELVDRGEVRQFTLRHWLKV
T2 sequence (P41143 whole entry): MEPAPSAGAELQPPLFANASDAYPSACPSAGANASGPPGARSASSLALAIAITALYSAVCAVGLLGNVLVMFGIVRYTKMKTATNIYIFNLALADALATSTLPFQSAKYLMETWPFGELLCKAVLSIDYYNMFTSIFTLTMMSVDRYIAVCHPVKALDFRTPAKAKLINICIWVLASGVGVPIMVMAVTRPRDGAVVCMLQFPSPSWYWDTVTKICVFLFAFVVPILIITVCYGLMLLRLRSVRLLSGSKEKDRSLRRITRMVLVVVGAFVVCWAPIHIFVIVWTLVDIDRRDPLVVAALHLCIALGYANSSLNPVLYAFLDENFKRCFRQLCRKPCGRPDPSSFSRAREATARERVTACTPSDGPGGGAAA

A word on the EC50: it is the midpoint of the concentration-response curve. The IC50 is the concentration that inhibits the measured activity by half. A higher IC50 goes with a need for much substance. Take `O=C(NC1CCC2(CCCC2)CC1)c1ccc(-c2ccccc2)cc1` [VBJ103, N-(Spiro[4.5]decan-8-yl)-[1,1′-biphenyl]-4-carboxamide]: the “effects across the safety panel” value in data set [1] is recorded as “only dose-dependent effect detected”. In addition, the Emax in data set [2] (OPRM1, Positive Allosteric Modulator format, read-out: Max Response, cAMP) is 14.5%; in data set [4] (setting [7]), 0%; in data set [6] (setting [7]), 19.7%. The EC50 in data set [2] (read-out: RC50 (EC50), cAMP) is over 100000 nM; in data set [4] (read-out: RC50 (EC50), cAMP), over 100000 nM; in data set [6] (read-out: RC50 (EC50), cAMP), over 100000 nM. Further, the “activity at μ opioid receptor” value in data set [2] (safety panel) was “no activity”. In addition, the concentration at 1 h in data set [3] (female SD rats (animals 13-16), 100 mg/kg SC, 24 h, 100 mg/kg, read-out: brain levels, individual animals) was 14.6 nM and 11.9 nM and 7.1 nM and 8.1 nM; in data set [3] (female SD rats (animals 26-28), 100 mg/kg SC, 1 h, 100 mg/kg, read-out: brain levels, individual animals), 39 nM and 51 nM; in data set [3] (female, Sprague-Dawley, rat, brain, sc, 100 mg/kg, female SD rats (animals 26-28), 100 mg/kg SC, 1 h, read-out: brain levels, individual animals) it was 40 nM; in data set [3] (female, Sprague-Dawley, rat, brain, sc, 100 mg·kg^−1, female rats, 100 mg·kg−1 s.c., 1 h per Table S12, read-out: mean brain concentration) it was 43 ± 4 nM; in data set [3] (male SD rats (animals 9-12), 100 mg/kg SC, 24 h, 100 mg/kg, read-out: brain levels, individual animals), 6.9 nM and 7.9 nM and 3.9 nM and 4.9 nM; in data set [3] (male SD rats (animals 23-25), 100 mg/kg SC, 1 h, 100 mg/kg, read-out: brain levels, individual animals) it was 47 nM and 56 nM. In addition, the concentration at 1 h in data set [3] (male, Sprague-Dawley, rat, brain, sc, 100 mg/kg, male SD rats (animals 23-25), 100 mg/kg SC, 1 h, read-out: brain levels, individual animals) was 53 nM; in data set [3] (male, Sprague-Dawley, rat, brain, sc, 100 mg·kg^−1, male rats, 100 mg·kg−1 s.c., 1 h per Table S12, read-out: mean brain concentration), 52 ± 2 nM. Further, the “activity at δ opioid receptor” value in data set [4] (safety panel) is “no activity”. Moreover, in data set [5] (10 concentrations, 0.005 to 100 μM), the IC50 is 125 nM and ~125 nM. In data set [5] (in relation to the control GBR 12909), the DAT maximal inhibition is recorded as ~ 60%. Further, the “activity at κ opioid receptor” value in data set [6] (safety panel) is “no activity”.

Source of the values: publication PMC12459314, “Subcutaneous administration of a novel TRPM8 antagonist reverses cold hypersensitivity while attenuating the drop in core body temperature” (British journal of pharmacology, 2024).
